Here are results for 27 compounds from patent US10526323B2, “Indazole and azaindazole substituted compounds as mGluR4 allosteric potentiators, compositions, and methods of treating neurological dysfunction” (Vanderbilt University, priority 2015, dated 2020).

Broadly, the EC50 is the concentration at which the effect is half-maximal.

This test deals with mGluR4 (UniProt Q14833). As to the kind of experiment: mGluR4 potentiation assay: increase in response to an EC20 concentration of agonist (species not given). Format: cell-based. The following applies: EC50 for potentiation of mGluR4; table does not state human or rat. In a few lines:
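Human mGluR4 was expressed in CHO cells read with a Ca2+-sensitive dye; rat mGluR4 was co-expressed with GIRK in […] read by thallium flux. Potentiation is the rise over agonist-alone response, with EC50 and maximal potentiation from non-linear fits.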
For the compound `Cn1ncc2ncc(Nc3n[nH]c4cccnc34)cc21` [Example 147, N-(1-methyl-1H-pyrazolo[4,3-b]pyridin-6-yl)-1H-pyrazolo[4,3-b]pyridin-3-amine], the EC50 amounted to 1260 nM.
The value for `Cn1ncc2ncc(Nc3n[nH]c4nccnc34)cc21` [Example 148, N-(1-methyl-1H-pyrazolo[4,3-b]pyridin-6-yl)-1H-pyrazolo[3,4-b]pyrazin-3-amine] was 3530 nM.
With `c1cnc2c(Nc3cnc4cnn(CC5CCC5)c4c3)n[nH]c2n1` [Example 149, N-(1-(cyclobutylmethyl)-1H-pyrazolo[4,3-b]pyridin-6-yl)-1H-pyrazolo[3,4-b]pyrazin-3-amine], the EC50 is greater than 10000 nM.
As for `c1nc2cnn(CC3CCC3)c2cc1Nc1n[nH]c2c1CCCC2` [Example 150, 1-(cyclobutylmethyl)-N-(4,5,6,7-tetrahydro-1H-indazol-3-yl)-1H-pyrazolo[4,3-b]pyridin-6-amine], the EC50 is greater than 10000 nM.
With `Cn1ncc2cc(Nc3n[nH]c4cccnc34)cnc21` [Example 151, N-(1-methyl-1H-pyrazolo[3,4-b]pyridin-5-yl)-1H-pyrazolo[4,3-b]pyridin-3-amine], the EC50 is 582 nM.
Regarding `CC(C)n1ncc2cc(Nc3n[nH]c4cccnc34)cnc21` [Example 152, N-(1-isopropyl-1H-pyrazolo[3,4-b]pyridin-5-yl)-1H-pyrazolo[4,3-b]pyridin-3-amine], the EC50 is 371 nM.
For the compound `CC(C)n1ncc2cc(Nc3n[nH]c4nccnc34)cnc21` [Example 153, N-(1-isopropyl-1H-pyrazolo[3,4-b]pyridin-5-yl)-1H-pyrazolo[3,4-b]pyrazin-3-amine], the EC50 is 413 nM.
For the compound `Cc1nn(CCC(C)C)c2ncc(Nc3n[nH]c4cccnc34)cc12` [Example 154, 1-isopentyl-3-methyl-N-(1H-pyrazolo[4,3-b]pyridin-3-yl)pyrazolo[3,4-b]pyridin-5-amine], the EC50 turned out to be 170 nM.
For the compound `CC[C@H](C)Cn1nc(C)c2cc(Nc3n[nH]c4cccnc34)cnc21` [Example 155, 3-methyl-1-[(2S)-2-methylbutyl]-N-(1H-pyrazolo[4,3-b]pyridin-3-yl)pyrazolo[3,4-b]pyridin-5-amine], the EC50 stood at 160 nM.
On to `Cc1nn(CC2CCC2)c2ncc(Nc3n[nH]c4cccnc34)cc12` [Example 156, 1-(cyclobutylmethyl)-3-methyl-N-(1H-pyrazolo[4,3-b]pyridin-3-yl)pyrazolo[3,4-b]pyridin-5-amine], for which the 50% effective concentration (EC50) was found to be 110 nM.
Take `Cc1nn(C2CCC2)c2ncc(Nc3n[nH]c4cccnc34)cc12` [Example 158, 1-cyclobutyl-3-methyl-N-(1H-pyrazolo[4,3-b]pyridin-3-yl)pyrazolo[3,4-b]pyridin-5-amine]: the EC50 was found to be 200 nM.
For `Cn1nc(C(=O)NCCS(C)(=O)=O)c2ccc(Nc3n[nH]c4cccnc34)cc21` [Example 159, 1-methyl-N-(2-methylsulfonylethyl)-6-(1H-pyrazolo[4,3-b]pyridin-3-ylamino)indazole-3-carboxamide], the EC50 turned out to be 3940 nM.
`Cn1nc(C(=O)N2CCCC(F)(F)C2)c2ccc(Nc3n[nH]c4cccnc34)cc21` [Example 160, (3,3-difluoro-1-piperidyl)-[1-methyl-6-(1H-pyrazolo[4,3-b]pyridin-3-ylamino)indazol-3-yl]methanone]: the EC50 came out at 888 nM.
As for `Cn1nc(C(=O)N2CCC(C(N)=O)CC2)c2ccc(Nc3n[nH]c4cccnc34)cc21` [Example 161, 1-[1-methyl-6-(1H-pyrazolo[4,3-b]pyridin-3-ylamino)indazole-3-carbonyl]piperidine-4-carboxamide], the figure is greater than 10000 nM; as for `Cn1nc(C(=O)N2CCC(F)(F)CC2)c2ccc(Nc3n[nH]c4cccnc34)cc21` [Example 162, (4,4-difluoro-1-piperidyl)-[1-methyl-6-(1H-pyrazolo[4,3-b]pyridin-3-ylamino)indazol-3-yl]methanone], 498 nM.
As for `Cn1nc(C(=O)N2CCCC(F)C2)c2ccc(Nc3n[nH]c4cccnc34)cc21` (stereo not drawn) [Example 163, (3-fluoro-1-piperidyl)-[1-methyl-6-(1H-pyrazolo[4,3-b]pyridin-3-ylamino)indazol-3-yl]methanone], the figure is 2210 nM; as for `Cn1nc(C(=O)N2CCC(F)CC2)c2ccc(Nc3n[nH]c4cccnc34)cc21` [Example 164, (4-fluoro-1-piperidyl)-[1-methyl-6-(1H-pyrazolo[4,3-b]pyridin-3-ylamino)indazol-3-yl]methanone], 1110 nM; as for `Cn1nc(C(=O)N2CCS(=O)(=O)CC2)c2ccc(Nc3n[nH]c4cccnc34)cc21` [Example 165, (1,1-dioxo-1,4-thiazinan-4-yl)-[1-methyl-6-(1H-pyrazolo[4,3-b]pyridin-3-ylamino)indazol-3-yl]methanone], 801 nM.
Take `CN1CCN(C(=O)c2nn(C)c3cc(Nc4n[nH]c5cccnc45)ccc23)CC1` [Example 166, (4-methylpiperazin-1-yl)-[1-methyl-6-(1H-pyrazolo[4,3-b]pyridin-3-ylamino)indazol-3-yl]methanone]: the EC50 was greater than 10000 nM.
On to `Cn1nc(C(=O)N2CCOCC2)c2ccc(Nc3n[nH]c4cccnc34)cc21` [Example 167, [1-methyl-6-(1H-pyrazolo[4,3-b]pyridin-3-ylamino)indazol-3-yl]-morpholino-methanone], for which the EC50 turned out to be 1580 nM.
`Cn1nc(C(=O)N2CC[C@@H](F)C2)c2ccc(Nc3n[nH]c4cccnc34)cc21` [Example 168, [(3R)-3-fluoropyrrolidin-1-yl]-[1-methyl-6-(1H-pyrazolo[4,3-b]pyridin-3-ylamino)indazol-3-yl]methanone]: the EC50 was 903 nM.
As to `Cn1nc(C(=O)NCCCS(C)(=O)=O)c2ccc(Nc3n[nH]c4cccnc34)cc21` [Example 169, 1-methyl-N-(3-methylsulfonylpropyl)-6-(1H-pyrazolo[4,3-b]pyridin-3-ylamino)indazole-3-carboxamide], the EC50 was 4610 nM.
As to `Cn1nc(C(=O)N2CCC(S(C)(=O)=O)C2)c2ccc(Nc3n[nH]c4cccnc34)cc21` (stereo not drawn) [Example 170, [1-methyl-6-(1H-pyrazolo[4,3-b]pyridin-3-ylamino)indazol-3-yl]-(3-methylsulfonylpyrrolidin-1-yl)methanone], the EC50 was 2340 nM.
`Cn1nc(C(=O)N2CC[C@H](F)C2)c2ccc(Nc3n[nH]c4cccnc34)cc21` [Example 171, [(3S)-3-fluoropyrrolidin-1-yl]-[1-methyl-6-(1H-pyrazolo[4,3-b]pyridin-3-ylamino)indazol-3-yl]methanone]: the EC50 came to 765 nM.
As for `Cn1nc(C(=O)N2CCC(F)(F)C2)c2ccc(Nc3n[nH]c4cccnc34)cc21` [Example 172, (3,3-difluoropyrrolidin-1-yl)-[1-methyl-6-(1H-pyrazolo[4,3-b]pyridin-3-ylamino)indazol-3-yl]methanone], the EC50 turned out to be 289 nM.
The value for `Cn1nc(C(=O)N2CCCC2)c2ccc(Nc3n[nH]c4cccnc34)cc21` [Example 173, [1-methyl-6-(1H-pyrazolo[4,3-b]pyridin-3-ylamino)indazol-3-yl]-pyrrolidin-1-yl-methanone] was 825 nM; that for `Cn1nc(C(=O)NC2CC(F)(F)C2)c2ccc(Nc3n[nH]c4cccnc34)cc21` [Example 174] was 116 nM.
